Numbers after ± are expanded uncertainties.
How the values were obtained:
[1] = 298.15 K; for mass density: 101.33 kPa, Vibrating tube method; for surface tension liquid-gas: Pendant drop shape
[2] = xn = mol fraction of the nth substance listed; settings: 298.15 K, Pendant drop shape

## CC(C)(C)O [2-methylpropan-2-ol]
[1]; Liquid
  mass density: 780.27 ± 0.16 kg/m3
[1]; Metastable liquid
  surface tension liquid-gas: 19.97 ± 0.3 mN/m

## Cc1ccc(C)cc1 [1,4-dimethylbenzene] + CC(C)O
[2]; x2 = 0
  surface tension liquid-gas: 27.89 ± 0.38 mN/m
[2]; x2 = 0.1029
  surface tension liquid-gas: 26.82 ± 0.37 mN/m
[2]; x2 = 0.2014
  surface tension liquid-gas: 26.03 ± 0.36 mN/m
[2]; x2 = 0.2993
  surface tension liquid-gas: 25.32 ± 0.35 mN/m
[2]; x2 = 0.403
  surface tension liquid-gas: 24.63 ± 0.35 mN/m
[2]; x2 = 0.4979
  surface tension liquid-gas: 24.06 ± 0.34 mN/m
[2]; x2 = 0.5985
  surface tension liquid-gas: 23.45 ± 0.33 mN/m
[2]; x2 = 0.6991
  surface tension liquid-gas: 22.86 ± 0.33 mN/m
[2]; x2 = 0.7982
  surface tension liquid-gas: 22.22 ± 0.32 mN/m
[2]; x2 = 0.9047
  surface tension liquid-gas: 21.52 ± 0.32 mN/m

## Cc1ccc(C)cc1 [1,4-dimethylbenzene]
[1]; Liquid
  mass density: 856.85 ± 0.12 kg/m3
  surface tension liquid-gas: 27.89 ± 0.38 mN/m

## CC(C)(C)O [2-methylpropan-2-ol] + Cc1ccc(C)cc1
[2]; x1 = 1
  surface tension liquid-gas: 19.97 ± 0.3 mN/m

## CC(C)O [propan-2-ol] + Cc1cccc(C)c1
[2]; x1 = 1
  surface tension liquid-gas: 20.93 ± 0.31 mN/m

## Cc1cccc(C)c1 [1,3-dimethylbenzene]
[1]; Liquid
  mass density: 859.79 ± 0.16 kg/m3
  surface tension liquid-gas: 28.36 ± 0.39 mN/m

## CC(C)O [propan-2-ol] + Cc1ccccc1C
[2]; x1 = 1
  surface tension liquid-gas: 20.93 ± 0.31 mN/m

## Cc1cccc(C)c1 [1,3-dimethylbenzene] + CC(C)(C)O
[2]; x2 = 0
  surface tension liquid-gas: 28.36 ± 0.39 mN/m
[2]; x2 = 0.1028
  surface tension liquid-gas: 26.83 ± 0.37 mN/m
[2]; x2 = 0.201
  surface tension liquid-gas: 25.76 ± 0.36 mN/m
[2]; x2 = 0.3006
  surface tension liquid-gas: 24.84 ± 0.35 mN/m
[2]; x2 = 0.4009
  surface tension liquid-gas: 23.98 ± 0.34 mN/m
[2]; x2 = 0.4999
  surface tension liquid-gas: 23.21 ± 0.33 mN/m
[2]; x2 = 0.5994
  surface tension liquid-gas: 22.52 ± 0.33 mN/m
[2]; x2 = 0.6984
  surface tension liquid-gas: 21.84 ± 0.32 mN/m
[2]; x2 = 0.7981
  surface tension liquid-gas: 21.22 ± 0.31 mN/m
[2]; x2 = 0.895
  surface tension liquid-gas: 20.64 ± 0.31 mN/m

## Cc1ccccc1C [1,2-dimethylbenzene] + CC(C)(C)O
[2]; x2 = 0
  surface tension liquid-gas: 29.6 ± 0.4 mN/m
[2]; x2 = 0.1083
  surface tension liquid-gas: 27.8 ± 0.38 mN/m
[2]; x2 = 0.1992
  surface tension liquid-gas: 26.43 ± 0.36 mN/m
[2]; x2 = 0.3042
  surface tension liquid-gas: 25.27 ± 0.35 mN/m
[2]; x2 = 0.402
  surface tension liquid-gas: 24.32 ± 0.34 mN/m
[2]; x2 = 0.5007
  surface tension liquid-gas: 23.6 ± 0.34 mN/m
[2]; x2 = 0.5988
  surface tension liquid-gas: 22.82 ± 0.33 mN/m
[2]; x2 = 0.6992
  surface tension liquid-gas: 22.05 ± 0.32 mN/m
[2]; x2 = 0.8
  surface tension liquid-gas: 21.38 ± 0.31 mN/m
[2]; x2 = 0.8991
  surface tension liquid-gas: 20.71 ± 0.31 mN/m
